Laboratory results published in patent US5747545A, “Method of preventing NMDA receptor complex-mediated Neuronal damage” (priority 1995, dated 1998).
Entries after “also recorded” stand apart in the source; their conditions may differ.

Assays:
[1] = system: cortical neurons (neuronal survival)
Procedure: S-nitrosocysteine was added as a source of NO.cndot. to cerebrocortical cultures (Lei et al., (1992) Neuron 8:1087-1099; Stamler et al., (1992) Science 258:1898-1902).
Peroxynitrite leads to lipid peroxidation and massive oxidation of sulfhydryls (Radi et al., (1991) J. Biol. Chem. 266:4244-4250; Radi et al., (1991) Arch. Biochem. Biophys. 288:481-487).
Values are expressed as mean+s.e.m. (n=9). Statistical comparisons were performed by an analysis of variance followed by a Scheffe multiple comparison of means (*, P<0.01 compared to control; **, P<0.05 compared to control; .dagger., P<0.01 compared to nitroso compound+SOD/catalase).
Specifically, the data in FIG. 7 were generated using mixed neuronal and glial cortical cultures from neonatal rats, as described previously (Lei, et al., (1992) Neuron 8:1087-1099). In at least three separate experiments, triplicate cultures were incubated overnight in Earle's buffered saline solution (EBSS) containing various concentrations of SNOC, peroxynitrite, SOD, catalase, or glutamate. […] The culture fluid was assayed for […] (LDH) as an indicator of neuronal survival by measuring the absorbance at 450 nm (Koh et al., (1987) J. Neurosci. Meth. 20:83-90). The cultures were also scored for neuronal viability by cell counting, generally with 0.2% trypan blue, after fixation in 2.5% glutaraldehyde, as described above. Neurons from cultures grown on 15 mm diameter cover slips were counted in a masked fashion in ~30 microscopic fields at 200 x.

physchem = assay type: physicochemical; details: pH 7.4
[2] = system: NMDA receptor (rat cortical neurons in culture); assay: Digital fura-2 imaging of NMDA-evoked intracellular [Ca2+] in cultured cortical neurons; assay type: cell-based, rat (Sprague-Dawley); details: after 2 mM DTT; 3 min exposure to 100 μM SNOC; NMDA 50 μM; FIG. 5A, P<0.01
[3] = system: retinal ganglion cells (NMDA receptor-mediated neurotoxicity); assay: Retinal ganglion cell survival assay (endogenous glutamate-related toxin, high calcium, low magnesium medium); assay type: cell-based, rat (Long-Evans); details: FIG. 3'
Procedure: To test amantadine derivatives for their ability to prevent neurotoxicity, neuronal cell death may be assayed as follows. […] Two to 6 days later, the animals are sacrificed by decapitation and enucleated, and the retinas quickly removed. The retinas are dissociated by mild treatment with the enzyme papain and cultured in Eagle's minimum essential medium (MEM, catalog #1090, Gibco, Grand Island, N.Y.) supplemented with 0.7% (w/v) methylcellulose, 0.3% (w/v) glucose, 2 mM glutamine, 1 μg/ml gentamicin, and 5% (v/v) rat serum, as described in Lipton et al., J. Physiol. 385:361, 1987. The cells are plated onto 75 mm^2 glass coverslips coated with poly-L-lysine in 35 mm tissue culture dishes. […]
To perform the viability test, the cell-culture medium is exchanged for physiological saline containing 0.0005% fluorescein diacetate for 15-45 s, and then cells are rinsed in saline. […] In contrast, the viable retinal ganglion cells display not only a blue color in the UV light but also a yellow-green fluorescence with filters appropriate for fluorescein. Thus, the use of two exchangeable fluorescence filter sets permits the rapid determination of viable ganglion cells in the cultures. […]

[4] = system: NMDA receptor (rat retinal ganglion cells); assay: Whole-cell patch clamp of NMDA-elicited current on rat retinal ganglion cells; assay type: cell-based, rat (Long-Evans)
Description: (§1) FIGS. 4A'-4B' depict evidence for open-channel block of NMDA-elicited whole-cell current by memantine (MEM) on rat retinal ganglion cells. […] A rapid application system was used to administer the drugs, and a fast washout method was used in the experiments shown in FIGS. 4A' and 4B'.
(§2) For retinal ganglion cell labeling, dissociation, and culture, we used techniques that have been detailed elsewhere (Leifer et al. (1984) Science 224:303-306). […] Two to six days later, the animals were killed by decapitation. Following enucleation, the retinas were dissociated with mild treatment with the enzyme papain. The retinal cells were than plated onto glass coverslips coated with poly-L-lysine in 35 mm tissue culture dishes. The growth medium was Eagle's minimum essential medium supplemented with 0.7% (w/v) methylcellulose, 0.3% (w/v) glucose, 2 mM glutamine, 5% (v/v) rat serum, and 1 μg/ml gentamicin. Retinal ganglion cells were identified by the presence of the retrogradely transported dye granular blue.
Whole-cell and single-channel recordings of rat retinal ganglion cells were performed as described in detail elsewhere (Hamill et al., 1981; Lipton and Tauck, 1987). The neurons were continuously superfused in a chamber at 27°-29° C. with a bath solution composed of (in mM) NaCl, 137.6; KCl, 5.8; CaCl2, 2.5; HEPES, 5; glucose, 22.2; with phenol red, 0.001% (v/v); glycine, 1 μM; pH 7.2; and no added magnesium. The patch pipettes were filled with an intracellular solution containing (in mM) CsCl, 120; tetraethylammonium chloride, 20; HEPES, 10; EGTA, 2.25; CaCl2, 1; and MgCl2, 2; and sometimes with 3 mM Mg-ATP to minimize rundown in prolonged recordings (pH 7.2). […]. Solution changes could be achieved rapidly, within 50-100 msec, by moving the array of constantly flowing pipette tips relative to the cell with a micromanipulator driver. A control pipette containing bath solution and 1 μM TTX was used to wash out NMDA-inducedcurrent rapidly.

[5] = system: kainate (KA)-elicited current (rat retinal ganglion cells); assay: Whole-cell patch clamp of kainate-elicited current on rat retinal ganglion cells; assay type: cell-based, rat (Long-Evans); details: 12 μM memantine, 50 μM kainate
Description: as §1, §2
(§3) Whole-cell and single-channel recordings of rat retinal ganglion cells were performed as described in detail elsewhere (Hamill et al., 1981; Lipton and Tauck, 1987). […]

[6] = system: quisqualate (QUIS)-elicited current (rat retinal ganglion cells); assay: Whole-cell patch clamp of quisqualate-elicited current on rat retinal ganglion cells; assay type: cell-based, rat (Long-Evans); details: 12 μM memantine, 5 μM quisqualate
Description: as §1, §2, §3

[7] = system: NMDA antagonist (MK-801) binding to post-mortem human brain homogenates; details: Kornhuber et al. 1989; cited from earlier work
NMDA receptor channels = details: Bormann 1989; cited from earlier work

| Compound | Killing of cortical neurons [1] | Maximally-lethal concentration [1] | half-life (physchem) | Effect on NMDA-evoked [Ca2+]i response (SNOC experiment) [2] | minimal effective concentration ([3]; Rattus norvegicus, compared to control, read-out: Concentration at which increased neuronal survival reached statistical significance) | Effect on retinal ganglion cell death from endogenous glutamate-related toxin ([3]; memantine 1-25 μM, 16-20 h, 37° C.) | Kinetics for blocking/unblocking NMDA receptor-mediated response [4] | Effect of memantine when administered alone ([4]; 12 μM memantine alone, -60 mV, FIG. 4b' left) | Effect on NMDA-induced current ([4]; 12 μM memantine, 200 μM NMDA, -50 and +50 mV) | Inhibition of response to NMDA ([4]; 12 μM memantine, 200 μM NMDA, -60 mV, n=17) | Effect on kainate-elicited current [5] | Effect on quisqualate-elicited current [6] | Inhibition of binding of MK-801 [7] | Block of NMDA receptor channels (NMDA receptor channels) |
| --- | --- | --- | --- | --- | --- | --- | --- | --- | --- | --- | --- | --- | --- | --- |
| N[C@@H](CSN=O)C(=O)O [SNOC, S-nitrosocysteine] | dose-dependent killing of cortical neurons | 200 µM | ~30 s | recovered only slightly |  |  |  |  |  |  |  |  |  |  |
| CC12CC3CC(C)(C1)CC(N)(C3)C2 [memantine, 1-amino-3,5-dimethyl adamantine] |  |  |  |  | 6 µM | prevented retinal ganglion cell death from the endogenous glutamate-related toxin in a dose-dependent manner; also recorded: blocks neuronal cell death mediated by excessive stimulation of the NMDA receptor | relatively rapid | lack of effect | blocking effect | 90% | did not affect the current | did not affect the current | inhibits the binding of an NMDA antagonist (MK-801) | blocks NMDA receptor channels |
